# From PubChem BioAssay AID1963852 (Molecular Pharmacology Branch, DTP, NCI, 2024)
# System: 282377-053-R-J1-PDC complex spheroid viability
# Assay: Anticancer human tumor 282377-053-R-J1-PDC patient-derived colon adenocarcinoma cell line growth inhibition [POLQ]
# Details: for IC50: curve of first compound; for viability, T/C: stronger effect = lower value
# Method in brief: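 Three-cell-type spheroids modelling solid tumor plus stroma served as the readout system; POL inhibitors were tested individually and in combination, concentration ranges set by clinical Cmax where known.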
# [1] = second compound 0.0316 µM, first compound 0.0316 µM
# [2] = second compound 0.0316 µM, first compound 0.1 µM
# [3] = second compound 0.0316 µM, first compound 0.316 µM
# [4] = second compound 0.0316 µM, first compound 1 µM
# [5] = second compound 0.0316 µM, first compound 3.16 µM
# [6] = second compound 0.0316 µM, first compound 10 µM
# [7] = second compound 0.1 µM, first compound 0.0316 µM
# [8] = second compound 0.1 µM, first compound 0.1 µM
# [9] = second compound 0.1 µM, first compound 0.316 µM
# [10] = second compound 0.1 µM, first compound 1 µM
# [11] = second compound 0.1 µM, first compound 3.16 µM
# [12] = second compound 0.1 µM, first compound 10 µM
# [13] = second compound 0.316 µM, first compound 0.0316 µM
# [14] = second compound 0.316 µM, first compound 0.1 µM
# [15] = second compound 0.316 µM, first compound 0.316 µM
# [16] = second compound 0.316 µM, first compound 1 µM
# [17] = second compound 0.316 µM, first compound 3.16 µM
# [18] = second compound 0.316 µM, first compound 10 µM
# [19] = second compound 1 µM, first compound 0.0316 µM
# [20] = second compound 1 µM, first compound 0.1 µM
# [21] = second compound 1 µM, first compound 0.316 µM
# [22] = second compound 1 µM, first compound 1 µM
# [23] = second compound 1 µM, first compound 3.16 µM
# [24] = second compound 1 µM, first compound 10 µM
# [25] = second compound 3.16 µM, first compound 0.0316 µM
# [26] = second compound 3.16 µM, first compound 0.1 µM
# [27] = second compound 3.16 µM, first compound 0.316 µM
# [28] = second compound 3.16 µM, first compound 1 µM
# [29] = second compound 3.16 µM, first compound 3.16 µM
# [30] = second compound 3.16 µM, first compound 10 µM
# [31] = second compound 10 µM, first compound 0.0316 µM
# [32] = second compound 10 µM, first compound 0.1 µM
# [33] = second compound 10 µM, first compound 0.316 µM
# [34] = second compound 10 µM, first compound 1 µM
# [35] = second compound 10 µM, first compound 3.16 µM
# [36] = second compound 10 µM, first compound 10 µM
# 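Note: spheroids exposed to compounds for seven days.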
# 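Throughout, for viability, T/C: 100% = DMSO vehicle control viability.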
compound,measurement,setting,value
CCc1cc2c(N3CCc4c(cc(Cn5ccnc5)cc4-c4cn(C)nc4C(F)(F)F)C3=O)cc(C)nc2c(OC)n1 + Cc1cccc(N(C)C(=O)C2C(O)CCN2c2nc(C)cc(C(F)(F)F)c2C#N)c1,IC50,second compound 0.0316 µM,> 10 µM
same,IC50,second compound 0.1 µM,> 10 µM
same,IC50,second compound 0.316 µM,> 10 µM
same,IC50,second compound 1 µM,> 10 µM
same,IC50,second compound 3.16 µM,> 10 µM
same,IC50,second compound 10 µM,> 10 µM
same,"viability, T/C",[1],104%
same,"viability, T/C",[2],99.8%
same,"viability, T/C",[3],89.7%
same,"viability, T/C",[4],103%
same,"viability, T/C",[5],108%
same,"viability, T/C",[6],134%
same,"viability, T/C",[7],85.9%
same,"viability, T/C",[8],102%
same,"viability, T/C",[9],91.2%
same,"viability, T/C",[10],91.2%
same,"viability, T/C",[11],112%
same,"viability, T/C",[12],117%
same,"viability, T/C",[13],90.3%
same,"viability, T/C",[14],99.8%
same,"viability, T/C",[15],111%
same,"viability, T/C",[16],110%
same,"viability, T/C",[17],104%
same,"viability, T/C",[18],108%
same,"viability, T/C",[19],111%
same,"viability, T/C",[20],102%
same,"viability, T/C",[21],114%
same,"viability, T/C",[22],89.9%
same,"viability, T/C",[23],108%
same,"viability, T/C",[24],107%
same,"viability, T/C",[25],110%
same,"viability, T/C",[26],99.5%
same,"viability, T/C",[27],101%
same,"viability, T/C",[28],93.8%
same,"viability, T/C",[29],122%
same,"viability, T/C",[30],115%
same,"viability, T/C",[31],96.8%
same,"viability, T/C",[32],98.3%
same,"viability, T/C",[33],97%
same,"viability, T/C",[34],96.8%
same,"viability, T/C",[35],104%
same,"viability, T/C",[36],126%
CCc1cc2c(N3CCc4c(cc(Cn5ccnc5)cc4-c4cn(C)nc4C(F)(F)F)C3=O)ccnc2c(OC)n1 + Cc1cccc(N(C)C(=O)C2C(O)CCN2c2nc(C)cc(C(F)(F)F)c2C#N)c1,IC50,second compound 0.0316 µM,> 10 µM
same,IC50,second compound 0.1 µM,> 10 µM
same,IC50,second compound 0.316 µM,> 10 µM
same,IC50,second compound 1 µM,> 10 µM
same,IC50,second compound 3.16 µM,> 10 µM
same,IC50,second compound 10 µM,> 10 µM
same,"viability, T/C",[1],108%
same,"viability, T/C",[2],94.1%
same,"viability, T/C",[3],91%
same,"viability, T/C",[4],110%
same,"viability, T/C",[5],104%
same,"viability, T/C",[6],106%
same,"viability, T/C",[7],93.4%
same,"viability, T/C",[8],90.9%
same,"viability, T/C",[9],85.8%
same,"viability, T/C",[10],91.4%
same,"viability, T/C",[11],103%
same,"viability, T/C",[12],121%
same,"viability, T/C",[13],95%
same,"viability, T/C",[14],94.9%
same,"viability, T/C",[15],89.8%
same,"viability, T/C",[16],86.1%
same,"viability, T/C",[17],104%
same,"viability, T/C",[18],93.8%
same,"viability, T/C",[19],95.2%
same,"viability, T/C",[20],87.6%
same,"viability, T/C",[21],104%
same,"viability, T/C",[22],101%
same,"viability, T/C",[23],107%
same,"viability, T/C",[24],109%
same,"viability, T/C",[25],98.9%
same,"viability, T/C",[26],91.6%
same,"viability, T/C",[27],101%
same,"viability, T/C",[28],99.6%
same,"viability, T/C",[29],115%
same,"viability, T/C",[30],116%
same,"viability, T/C",[31],98.9%
same,"viability, T/C",[32],95.6%
same,"viability, T/C",[33],108%
same,"viability, T/C",[34],96.4%
same,"viability, T/C",[35],111%
same,"viability, T/C",[36],124%
COc1cc2cc(C(=O)CCC(=O)O)sc2cc1OC + Cc1cccc(N(C)C(=O)C2C(O)CCN2c2nc(C)cc(C(F)(F)F)c2C#N)c1,IC50,second compound 0.0316 µM,> 10 µM
same,IC50,second compound 0.1 µM,> 10 µM
same,IC50,second compound 0.316 µM,> 10 µM
same,IC50,second compound 1 µM,> 10 µM
same,IC50,second compound 3.16 µM,> 10 µM
same,IC50,second compound 10 µM,> 10 µM
same,"viability, T/C",[1],106%
same,"viability, T/C",[2],112%
same,"viability, T/C",[3],101%
same,"viability, T/C",[4],106%
same,"viability, T/C",[5],109%
same,"viability, T/C",[6],104%
same,"viability, T/C",[7],112%
same,"viability, T/C",[8],107%
same,"viability, T/C",[9],102%
same,"viability, T/C",[10],95.8%
same,"viability, T/C",[11],115%
same,"viability, T/C",[12],89.4%
same,"viability, T/C",[13],119%
same,"viability, T/C",[14],107%
same,"viability, T/C",[15],113%
same,"viability, T/C",[16],97%
same,"viability, T/C",[17],107%
same,"viability, T/C",[18],95.1%
same,"viability, T/C",[19],116%
same,"viability, T/C",[20],103%
same,"viability, T/C",[21],107%
same,"viability, T/C",[22],107%
same,"viability, T/C",[23],103%
same,"viability, T/C",[24],105%
same,"viability, T/C",[25],106%
same,"viability, T/C",[26],106%
same,"viability, T/C",[27],103%
same,"viability, T/C",[28],108%
same,"viability, T/C",[29],113%
same,"viability, T/C",[30],108%
same,"viability, T/C",[31],107%
same,"viability, T/C",[32],112%
same,"viability, T/C",[33],117%
same,"viability, T/C",[34],100%
same,"viability, T/C",[35],122%
same,"viability, T/C",[36],109%
COc1ccc([C@@H](O)c2cc(-c3ncnc4cc(N5CCOCC5)ccc34)c(F)cc2Cl)nn1 + Cc1cccc(N(C)C(=O)C2C(O)CCN2c2nc(C)cc(C(F)(F)F)c2C#N)c1,IC50,second compound 0.0316 µM,> 10 µM
same,IC50,second compound 0.1 µM,> 10 µM
same,IC50,second compound 0.316 µM,> 10 µM
same,IC50,second compound 1 µM,> 10 µM
same,IC50,second compound 3.16 µM,> 10 µM
same,IC50,second compound 10 µM,> 10 µM
same,"viability, T/C",[1],104%
same,"viability, T/C",[2],115%
same,"viability, T/C",[3],108%
same,"viability, T/C",[4],103%
same,"viability, T/C",[5],78.3%
same,"viability, T/C",[6],62.4%
same,"viability, T/C",[7],106%
same,"viability, T/C",[8],106%
same,"viability, T/C",[9],89.1%
same,"viability, T/C",[10],110%
same,"viability, T/C",[11],72.2%
same,"viability, T/C",[12],75.1%
same,"viability, T/C",[13],110%
same,"viability, T/C",[14],90%
same,"viability, T/C",[15],97.6%
same,"viability, T/C",[16],93.1%
same,"viability, T/C",[17],102%
same,"viability, T/C",[18],62.2%
same,"viability, T/C",[19],111%
same,"viability, T/C",[20],80.1%
same,"viability, T/C",[21],97.7%
same,"viability, T/C",[22],83.2%
same,"viability, T/C",[23],103%
same,"viability, T/C",[24],53.1%
same,"viability, T/C",[25],122%
same,"viability, T/C",[26],98.9%
same,"viability, T/C",[27],108%
same,"viability, T/C",[28],87.8%
same,"viability, T/C",[29],101%
same,"viability, T/C",[30],68.5%
same,"viability, T/C",[31],87.9%
same,"viability, T/C",[32],87.6%
same,"viability, T/C",[33],109%
same,"viability, T/C",[34],76.6%
same,"viability, T/C",[35],64.3%
same,"viability, T/C",[36],54.3%
